In patent publication US20240417410A1, “TRICYCLIC COMPOUNDS FOR THE TREATMENT OF CANCER” (Hoffmann-La Roche Inc., priority 2023, published 2024):
pIC50: −log10 of the molar value.

Key:
[1] = system: AGS cells (KRAS G12D); test: Cell viability assay (Cell Counting Kit-8, 3-day); assay type: cell-based, human; details: Homo sapiens, 72 h, 72 hrs incubation
Method: (§1) The purpose of this cellular assay was to determine the effects of test compounds on the proliferation of human cancer cell lines NCI-H358 (ATCC-CRL5807) cells, AGS (ATCC-CRL-1739) cells, SW620 (ATCC-CCL-227) over a 3-day treatment period by quantifying the amount of NADPH present at endpoint using Cell Counting Kit-8.
(§2) Cells were seeded at 5,000 cells/well (NCI-H358), 2,000 cells/well (AGS) 2,000 cells/well (SW620) in 96-well assay plates (Corning-3699) and incubated overnight. On the day of the assay, diluted compounds were then added in a final concentration of 0.5% DMSO. After 72 hrs incubation, a tenth of the volume of cell counting kit 8 (Dnjindo-CK04) was added into each well. Read the signal (OD450 minus OD650) using EnVision after 2 hrs incubation. IC50 was determined by fitting a 4-parameter sigmoidal concentration response model.

[2] = system: NCI-H358 cells (KRAS G12C); test: Cell viability assay (Cell Counting Kit-8, 3-day); assay type: cell-based, human; details: Homo sapiens, NCI-H358, 72 h, NCI-H358, 72 hrs incubation
Method: as §1, §2

[3] = system: SW620 cells (KRAS G12V); test: Cell viability assay (Cell Counting Kit-8, 3-day); assay type: cell-based, human; details: Homo sapiens, SW-620; SW620, 72 hrs incubation
Method: as §1, §2

[4] = target: KRAS G12C-BRAF complex (Homo sapiens (Human), UniProt P01116+P62937, G12C); test: KRAS-BRAF with CYPA (500 nM) interaction assay (TR-FRET, Example 136); assay type: biochemical; details: KRAS G12C-BRAF disruption
Method: In this example, TR-FRET was also used to measure the compound or compound-CYPA dependent disruption of the KRAS G12C-BRAF complex. This protocol was also used to measure disruption of KRAS G12D or KRAS G12V binding to BRAF by a compound of the invention, respectively. In assay buffer containing 25 mM HEPES PH=7.4 (4-(2-hydroxyethyl)-1-piperazineethanesulfonic acid, Thermo, 15630080), 0.002% Tween20, 0.1% BSA, 100 mM NaCl, 5 mM MgCl2, 10 μM GMPPNP (Guanosine 5′-[β,γ-imido]triphosphate trisodium salt hydrate, Sigma, G0635), […] 384-well assay plate at final concentrations of 50 nM, 6.25 nM and 1 nM, respectively. Compound was present in plate wells as a 16-point 3-fold dilution series starting at a final concentration of 10 μM and incubated for 3 hours. A mixture of MAb Anti-6His-XL665 (Cisbio, 61HISXLB) and Mab anti-GST-TB cryptate (Cisbio, 61GSTTLB) was then added at a final concentration of 6.67 nM and 0.21 nM, respectively, and the plate was incubated for an additional 1.5 hours. TR-FRET signal was read on a PHERstar FSX microplate reader (Ex320 nm, Em 665/615 nm). Compounds that facilitate disruption of the KRAS-BRAF complex were identified as those eliciting a decrease in the TR-FRET ratio relative to DMSO control wells.

[5] = system: phosphorylation of ERK, KRAS G12C in NCI-H358 cells; test: pERK inhibition assay; assay type: cell-based; details: Homo sapiens, NCI-H358, 4 h
Method: (§3) This assay is to measure the ability of test compounds in inhibiting the phosphorylation of ERK, the downstream signaling of KRAS G12C in NCI-H358 cells, KRAS G12D in AGS cells, and KRAS G12V in SW620. NCI-H358 (ATCC-CRL5807) cells, AGS (ATCC-CRL-1739) cells, SW620 (ATCC-CCL-227) cells were all grown and maintained using RPMI-1640 medium (Thermo Fisher Scientific) with 10% fetal bovine serum and 1% penicillin/streptomycin. On the day prior to compound addition, cells were plated in tissue culture-treated 96 well plates (Corning-3699) at a density of 30,000 cell/well, 20,000 cell/well, 30,000 cell/well for NCI-H358, AGS and SW620 respectively, and allowed for attachment overnight. Diluted compounds were then added in a final concentration of 0.5% DMSO. After 4 hours of incubation, the medium was removed, 100 μL of 4% formaldehyde was added, and the assay plates were incubated at room temperature for 20 minutes. The plates were then washed once with phosphate buffered saline (PBS), and permeabilized with 100 μL of chilled methanol for 10 minutes. Non-specific antibody binding to the plates was blocked using 50 μL 1X BSA blocking buffer (Thermo-37520, 10-fold dilution by Phosphate-Buffered Saline Tween (PBST) for at least 1 hour at room temperature.
(§4) The amount of phosphor-ERK was determined using an antibody specific for phosphorylated form of ERK. Primary antibody (PERK, CST-4370, Cell Signaling Technology) was diluted 1:300 in blocking buffer, with 50 μL aliquoted to each well, and incubated overnight at 4° C. Cells was washed five times for 5 minutes with PBST. Secondary antibody (HRP-linked anti-rabbit IgG, CST-7074, Cell Signaling Technology) was diluted 1:1000 in blocking buffer, and 50 μL was added to each well and incubated 1-2 hrs at room temperature. Cells was washed […] for 5 minutes with PBST, 100 μL TMB ELISA substrate (abcam-ab171523) were added and gently shake for 20 minutes. 50 μL stop solution (abcam-ab 171529) were added, and then read the signal (OD450) by EnVision.
(§5) IC50 was determined by fitting a 4-parameter sigmoidal concentration response model.

[6] = system: phosphorylation of ERK, KRAS G12D in AGS cells; test: pERK inhibition assay; assay type: cell-based; details: Homo sapiens, AGS, 4 h
Method: as §3, §4, §5

[7] = system: phosphorylation of ERK, KRAS G12V in SW620; test: pERK inhibition assay; assay type: cell-based; details: Homo sapiens, SW-620, 4 h, SW620 cells
Method: as §3, §4, §5

KRAS G12C-BRAF complex, sequence (P01116-2 other isoform, or with tags, fused parts or gaps G12C): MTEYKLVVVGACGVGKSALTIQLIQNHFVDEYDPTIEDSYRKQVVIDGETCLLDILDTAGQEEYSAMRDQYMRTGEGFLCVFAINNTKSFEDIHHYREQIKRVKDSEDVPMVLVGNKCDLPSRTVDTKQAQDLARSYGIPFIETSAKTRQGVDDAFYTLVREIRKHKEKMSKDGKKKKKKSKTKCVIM
KRAS G12C-BRAF complex, sequence (P62937 whole entry): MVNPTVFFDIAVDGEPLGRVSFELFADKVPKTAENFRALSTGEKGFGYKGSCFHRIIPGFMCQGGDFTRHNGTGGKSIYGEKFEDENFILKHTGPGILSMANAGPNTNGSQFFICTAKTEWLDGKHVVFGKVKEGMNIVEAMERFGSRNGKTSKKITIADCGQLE

CO[C@@H](C)c1ncc(N2CCN(C)CC2)cc1-c1c2c3cc(cc4c3n1CCC4)-c1csc(n1)C[C@H](NC(=O)[C@@H]1C[C@H]1c1ncccn1)C(=O)N1CCC[C@H](N1)C(=O)OCC(C)(C)C2 (atropisomer, axis not shown) [Example 81, (1R,2R)-N-[(7S,13S)-20-[2-[(1S)-1-methoxyethyl]-5-(4-methylpiperazin-1-yl)-3-pyridyl]-17,17-dimethyl-8,14-dioxo-15-oxa-4-thia-9,21,30,31-tetrazahexacyclo[23.3.1.1^2,5.1^9,13.0^19,27.0^21,26]hentriaconta-1 (28),2,5 (31),19,25 (29),26-hexaen-7-yl]-2-pyrimidin-2-yl-cyclopropanecarboxamide]
pIC50 [1]: 7.63
pIC50 [2]: 8.28
pIC50 [3]: 9.10
pIC50 [4]: 7.52
pIC50 [5]: 8.80
pIC50 [6]: 8.19
pIC50 [7]: 8.92

CO[C@@H](C)c1ncc(N2CCN(CC(F)(F)F)CC2)cc1-c1c2c3cc(cc4c3n1CCC4)-c1csc(n1)C[C@H](NC(=O)[C@H]1C[C@@H]1C)C(=O)N1CCC[C@H](N1)C(=O)OCC(C)(C)C2 (atropisomer, axis not shown; (M)) [Example 3, (1S,2S)-N-[(7S,13S)-(20M)-20-[2-[(1S)-1-methoxyethyl]-5-[4-(2,2,2-trifluoroethyl)piperazin-1-yl]-3-pyridyl]-17,17-dimethyl-8,14-dioxo-15-oxa-4-thia-9,21,30,31-tetrazahexacyclo[23.3.1.1^2,5.1^9,13.0^19,27.0^21,26]hentriaconta-1 (28),2,5 (31), 19,25 (29),26-hexaen-7-yl]-2-methyl-cyclopropanecarboxamide]
pIC50 [4]: 7.50
pIC50 [5]: 8.29
pIC50 [6]: 7.61
pIC50 [7]: 8.44

CO[C@@H](C)c1ncc(N2CCOCC2)cc1-c1c2c3cc(cc4c3n1[C@@H](C)CO4)-c1csc(n1)C[C@H](NC(=O)[C@H]1C[C@@H]1C)C(=O)N1CCC[C@H](N1)C(=O)OCC(C)(C)C2 (atropisomer, axis not shown; (M)) [Example 53, (1S,2S)-N-[(7S,13S,22S)-(20M)-20-[2-[(1S)-1-methoxyethyl]-5-morpholino-3-pyridyl]-17,17,22-trimethyl-8,14-dioxo-15,24-dioxa-4-thia-9,21,30,31-tetrazahexacyclo[23.3.1.1^2,5.1^9,13.0^19,27.0^21,26]hentriaconta-1 (28),2,5 (31), 19,25 (29),26-hexaen-7-yl]-2-methyl-cyclopropanecarboxamide]
pIC50 [4]: 7.18
pIC50 [5]: 7.67
pIC50 [6]: 6.75
pIC50 [7]: 7.61

CO[C@@H](C)c1ncc(N2CCN(C)CC2)cc1-c1c2c3cc(cc4c3n1CCC4)-c1csc(n1)C[C@H](NC(=O)[C@H]1CC[C@](C)(O)CC1)C(=O)N1CCC[C@H](N1)C(=O)OCC(C)(C)C2 (atropisomer, axis not shown; (M)) [Example 71, trans-4-hydroxy-N-[(7S,13S)-(20M)-20-[2-[(1S)-1-methoxyethyl]-5-(4-methylpiperazin-1-yl)-3-pyridyl]-17,17-dimethyl-8,14-dioxo-15-oxa-4-thia-9,21,30,31-tetrazahexacyclo[23.3.1.1^2,5.1^9,13.0^19,27.0^21,26]hentriaconta-1 (28),2,5 (31), 19,25 (29),26-hexaen-7-yl]-4-methyl-cyclohexanecarboxamide]
pIC50 [4]: 7.54
pIC50 [5]: 8.44
pIC50 [6]: 7.29
pIC50 [7]: 8.19

CO[C@@H](C)c1ncc(N2CCN(C)CC2)cc1-c1c2c3cc(cc4c3n1CCC4)-c1csc(n1)C[C@H](NC(=O)C1CCOCC1)C(=O)N1CCC[C@H](N1)C(=O)OCC(C)(C)C2 (atropisomer, axis not shown; (M)) [Example 77, N-[(7S,13S)-(20M)-20-[2-[(1S)-1-methoxyethyl]-5-(4-methylpiperazin-1-yl)-3-pyridyl]-17,17-dimethyl-8,14-dioxo-15-oxa-4-thia-9,21,30,31-tetrazahexacyclo[23.3.1.1^2,5.1^9,13.0^19,27.0^21,26]hentriaconta-1 (28),2,5 (31),19,25 (29),26-hexaen-7-yl]tetrahydropyran-4-carboxamide]
pIC50 [4]: 7.38
pIC50 [5]: 8.36
pIC50 [6]: 7.58
pIC50 [7]: 8.40

CO[C@@H](C)c1ncc(N2CCN(C)CC2)cc1-c1c2c3cc(cc4c3n1CCC4)-c1csc(n1)C[C@H](NC(=O)C1CCC(F)(F)C1)C(=O)N1CCC[C@H](N1)C(=O)OCC(C)(C)C2 (stereo partly drawn) [Example 65, 3,3-difluoro-N-[(7S,13S)-(20M)-20-[2-[(1S)-1-methoxyethyl]-5-(4-methylpiperazin-1-yl)-3-pyridyl]-17,17-dimethyl-8,14-dioxo-15-oxa-4-thia-9,21,30,31-tetrazahexacyclo[23.3.1.1^2,5.1^9,13.0^19,27.0^21,26]hentriaconta-1 (28),2,5 (31), 19,25 (29),26-hexaen-7-yl]cyclopentanecarboxamide]
pIC50 [4]: 7.29
pIC50 [5]: 8.64
pIC50 [6]: 7.50
pIC50 [7]: 8.30

CO[C@@H](C)c1ncc(N2CCN(C)CC2)cc1-c1c2c3cc(cc4c3n1CCC4)-c1csc(n1)C[C@H](NC(=O)C13CC(CO1)C3)C(=O)N1CCC[C@H](N1)C(=O)OCC(C)(C)C2 [Example 66, N-[(7S,13S)-(20M)-20-[2-[(1S)-1-methoxyethyl]-5-(4-methylpiperazin-1-yl)-3-pyridyl]-17,17-dimethyl-8,14-dioxo-15-oxa-4-thia-9,21,30,31-tetrazahexacyclo[23.3.1.1^2,5.1^9,13.0^19,27.0^21,26]hentriaconta-1 (28),2,5 (31), 19,25 (29),26-hexaen-7-yl]-2-oxabicyclo[2.1.1]hexane-1-carboxamide]
pIC50 [4]: 7.30
pIC50 [5]: 8.59
pIC50 [6]: 7.40
pIC50 [7]: 8.48

CO[C@@H](C)c1ncc(N2CCN(C)CC2)cc1-c1c2c3cc(cc4c3n1CCC4)-c1csc(n1)C[C@H](NC(=O)C13C4CC1CC3C4)C(=O)N1CCC[C@H](N1)C(=O)OCC(C)(C)C2 (stereo partly drawn) [Example 72, N-[(7S,13S)-(20M)-20-[2-[(1S)-1-methoxyethyl]-5-(4-methylpiperazin-1-yl)-3-pyridyl]-17,17-dimethyl-8,14-dioxo-15-oxa-4-thia-9,21,30,31-tetrazahexacyclo[23.3.1.1^2,5.1^9,13.0^19,27.0^21,26]hentriaconta-1 (28),2,5 (31), 19,25 (29),26-hexaen-7-yl]tricyclo[3.1.1.0^3,6]heptane-6-carboxamide]
pIC50 [4]: 7.50
pIC50 [5]: 8.64
pIC50 [6]: 7.38
pIC50 [7]: 8.32
